Measured values as given in US4605642A, “CRF antagonists” (The Salk Institute for Biological Studies, priority 1984, dated 1986).

Tests used:
ACTH secretion = ACTH secretion in vivo after intravenous hCRF in rat preparations
Protocol: (§1) Plasma levels of ACTH and β-END-LI are elevated for at least 5-20 minutes following the intraveneous administration of hCRF to nembutal-anesthesized male rats and to quiescent male or female rats with indwelling intravenous cannulae.

β-END-LI secretion = β-END-LI secretion in vivo after intravenous hCRF in rat preparations
Protocol: as §1

[1] = test system: secretion of β-endorphin by cultured rat pituitary cells; experiment: Blocking of β-endorphin (β-END-LI) secretion by cultured rat pituitary cells; type: cell-based; conditions: general procedure set forth in Example III
Protocol: (§2) The effectiveness of synthetic CRF antagonists to block the secretion of ACTH and β-endorphin by cultured rat pituitary cells is measured using the procedure as generally set forth in Vale et al., Endocrinology, 91, 562 (1972). In vivo testing is carried out using the general procedure set forth in C. Rivier et al., Science, 218, 377 (1982).

[2] = Blood pressure lowering by antagonist; type: in vivo; conditions: general procedure set forth in Example III
[3] = test system: secretion of ACTH by cultured rat pituitary cells; experiment: Blocking of oCRF-stimulated ACTH secretion by cultured rat pituitary cells; type: cell-based; conditions: for inhibition of the secretion of ACTH (in words): general procedure set forth in Example III
Protocol: as §2

[4] = test system: TRF-stimulated secretion of TSH and prolactin; experiment: Specificity: TRF-stimulated secretion of TSH and prolactin; type: cell-based; conditions: specificity of inhibition
spontaneous ACTH release = experiment: Spontaneous ACTH release by adrenalectomized rats; type: in vivo, rat; conditions: iv 3 mg/kg BW (2.7 nmole)
Protocol: as §2
The in vivo effect of CRF antagonists is tested on the spontaneous ACTH release by adrenalectomized rats.

[5] = test system: GRF-stimulated secretion of GH; experiment: Specificity: GRF-stimulated secretion of GH; type: cell-based; conditions: specificity of inhibition
[6] = test system: GnRH-stimulated secretion of LH and FSH; experiment: Specificity: GnRH-stimulated secretion of LH and FSH; type: cell-based; conditions: specificity of inhibition
[7] = intravenous, nembutal-anesthetized male rats and quiescent cannulated male or female rats

Row | Molecule | inhibition of the secretion of β-END-LI (in words) [1] | inhibition of the secretion of ACTH (in words) [3] | also measured
1 | CC[C@H](C)[C@H](NC(=O)[C@@H](NC(=O)[C@H](CCC(=O)O)NC(=O)[C@H](CCSC)NC(=O)[C@H](CC(C)C)NC(=O)[C@H](CCCCN)NC(=O)[C@H](CCCNC(=N)N)NC(=O)[C@H](CC(N)=O)NC(=O)[C@H](CO)NC(=O)[C@H](Cc1c[nH]cn1)NC(=O)[C@H](C)NC(=O)[C@H](CCC(N)=O)NC(=O)[C@H](CCC(N)=O)NC(=O)[C@H](C)NC(=O)[C@H](CC(C)C)NC(=O)[C@H](CCC(N)=O)NC(=O)[C@H](CCC(=O)O)NC(=O)[C@H](C)NC(=O)[C@H](CCCNC(=N)N)NC(=O)[C@H](C)NC(=O)[C@H](CCSC)NC(=O)[C@H](CCC(=O)O)NC(=O)[C@H](CC(C)C)NC(=O)[C@@H](NC(=O)[C@H](CCC(=O)O)NC(=O)[C@H](CCCNC(=N)N)NC(=O)[C@H](CC(C)C)NC(=O)[C@H](CC(C)C)NC(=O)[C@H](Cc1c[nH]cn1)NC(=O)[C@H](Cc1ccccc1)NC(=O)[C@@H](NC(=O)[C@H](CC(C)C)NC(=O)[C@H](CC(=O)O)NC(=O)[C@H](CC(C)C)NC(=O)[C@H](CO)NC(=O)[C@@H](NC(=O)[C@@H]1CCCN1C(=O)[C@@H]1CCCN1C(=O)[C@H](CCC(=O)O)NC(=O)[C@H](CCC(=O)O)NC(=O)[C@@H](N)CO)[C@@H](C)CC)[C@@H](C)O)C(C)C)[C@@H](C)CC)C(N)=O [hCRF] | – | – | time for which plasma levels of ACTH are elevated (ACTH secretion; [7]): 5 to 20 min; stimulation of ACTH secretion in vivo (ACTH secretion; several rat preparations): powerful stimulator; time for which plasma levels of β-END-LI are elevated (β-END-LI secretion; [7]): 5 to 20 min; stimulation of β-END-LI secretion in vivo (β-END-LI secretion; several rat preparations): powerful stimulator
2 | H-Asp-CML-Thr-Leu-Glu-CML-Leu-Arg-Glu-Met-CML-Glu-Met-Ala-Lys-Ala-Glu-Gln- CML-Ala-Glu-Gln-Ala-Ala-CML-Asn-Arg-Leu-CML-Leu-Glu-Glu-Ala-NH2 [[CML^10,14,19,27,33,38]-AHC(9-41)] | inhibits the secretion | inhibits the secretion | lowering of blood pressure [2]: very significant lowering of blood pressure
3 | H-DLTFELLREVLEVARAEQLAQQAHSNRKLMEII-NH2 [[Glu^13, Val^21]-hCRF(9-41)] | inhibits the secretion | inhibits the secretion | –
4 | H-DLTFHLLREMLEMAKAEQEAEQAALNRLLLEEA-NH2 [AHC (9-41)] | – | – | effect on the TRF-stimulated secretion of TSH and prolactin [4]: no effect; plasma ACTH levels (spontaneous ACTH release) (spontaneous ACTH release): marked decrease; effect on the GRF-stimulated secretion of GH [5]: no effect; effect on the GnRH-stimulated secretion of LH and FSH [6]: no effect; IC50 ([3]; cultured rat pituitary cells, 1 nM oCRF, five independent experiments, read-out: concentration that blocks the secretion of ACTH due to 1 nM oCRF by 50%): 197 ± 72 nM; type of inhibition of oCRF-stimulated ACTH secretion ([3]; several concentrations of oCRF and of antagonist, constant oCRF 1 nM): competitive inhibition; potency as CRF antagonist (in words) ([3]; test not stated at the place): particularly potent
5 | H-DLTFHLLREVAEMTRAEQLAQQAHSNRKLMEII-NH2 [[Ala^19, Thr^22]-hCRF(9-41)] | inhibits the secretion | inhibits the secretion | –
6 | H-DLTFHLLRNMIEMARNENQREQAGLNRKYLDEV-NH2 [Carp Urotensin I(9-41)] | inhibits the secretion | inhibits the secretion | –
7 | H-DLTLELLREMLEMAKAEQEAEQAALNRLLLEEA-NH2 [[Leu^12, Glu^13]-AHC(9-41)] | inhibits the secretion | inhibits the secretion | –
8 | H-IDLTFHLLRNMIEMARNENQREQAGLNRKYLDEV-NH2 [Carp Urotensin I(8-41)] | inhibits the secretion | inhibits the secretion | –
9 | H-LDLTFHLLREVLEMAKAEQLAQQAHSNRKLLEII-NH2 [[Lys^23, Leu^38]-hCRF(8-41)] | inhibits the secretion | inhibits the secretion | –
10 | H-LDLTLELLREMLEMEKAEKEAEQAALNRLLLEEA-NH2 [[Glu^13,22, Leu^12, Lys^26]-AHC(8-41)] | inhibits the secretion | inhibits the secretion | –
11 | H-LSLELLRKMIEARKQEKEKQQAANNRLLLDII-NH2 | inhibits the secretion | inhibits the secretion | –
